From ChEMBL document CHEMBL3507680, “University of Dundee, Gates Library screen for HepG2 cell viability”

assay: Human HepG2 cell viability assay in 384 well format; type: toxicity, cell-based; design: dose 125 nL, time 70.5 hour; cytotoxicity at 70.5 h: concentration not given beside the values; settings: HepG2 cells, read-out: Inhibition

Compound | cytotoxicity at 70.5 h [%]
CC(C)[C@H]1CN(S(C)(=O)=O)C[C@@H]1NC(=O)c1ccnc(N)c1 | -1.08
COCCC1(C(=O)O)CCCN(C(=O)c2cc(C)oc2C)C1 (configuration not stated) | -15.5
COc1ccc(F)cc1C[S+]([O-])CC(=O)NCc1ccccc1C (configuration not stated) | 11
O=C(N[C@@H]1CCNC[C@H]1O)c1ccc(O)c(Cl)c1 | -8.26
Cn1ncc2c1NC(=O)CSC2c1ccc2c(c1)OCO2 (configuration not stated) | 10.3
COCCN(C)C[C@@H]1CCC[C@@H]2CN(Cc3ccc(OC)nc3)C[C@@H]21 | 0.0071
O=C(NC1CC1)c1nnn(-c2cccc(C(F)(F)F)c2)c1C1CC1 | -8.39
CC(C)[C@H]1CN(c2ccnc(N)n2)C[C@@H]1NC(=O)C1(C#N)CCOCC1 | -9.5
O=C(Nc1cccnc1-n1cncn1)C1CCC1 | -22.6
CCC(=O)N1CCC2(CC1)CC(NC(=O)N(C)C)c1cc(C)ccc12 (configuration not stated) | -5.76
COc1ccc(C2Nc3cc(Cl)ccc3C3=NCCN32)cc1CO (configuration not stated) | 9.73
CCNC(=O)[C@@H]1CN(Cc2ccccc2)C[C@H]1C(=O)c1ccc(F)cc1 | -0.813
Cc1nn2cnnc2c(C)c1CCC(=O)Nc1nnc(C2CC2)s1 | -10.7
CNc1cc(C2CCCN2C(=O)c2ccc(=O)[nH]n2)ccn1 (configuration not stated) | -2.78
O=C1CCC2(CCN(Cc3cscn3)CC2)CN1CC1CCCO1 (configuration not stated) | 10.4
O=C(c1cccnc1)N1CCC(Oc2cccc(C(F)(F)F)c2)CC1 | -4.72
CCCc1ccc(CN2CCN(C(=O)C(C)C)[C@@H]3CS(=O)(=O)C[C@@H]32)o1 | -6.33
CCn1ccnc1-c1nc2cc(S(=O)(=O)N3CCCC3)ccc2n1C | -3.32
COc1ccc(N(Cc2ccco2)C(=O)COC(C)C)cc1F | -7.47
CC1c2ncc(Cn3cccn3)n2CCN1S(=O)(=O)C1CC1 (configuration not stated) | -5.83
COc1ccc(-n2ccc(C(=O)NCCN3CCCC(C)C3)n2)cc1 (configuration not stated) | 23.3
O=C(CCc1ccccc1Br)NS(=O)(=O)c1ccc2c(c1)OCCO2 | -1.54
Cc1ccc(NC2CCN(C(=O)CCNS(C)(=O)=O)CC2)nn1 | -19

Compound | cytotoxicity at 70.5 h [%]
CC(=O)N[C@@H]1CN(Cc2nc3ccccc3[nH]2)C[C@H]1c1ccc(C)o1 | -8.75
CCN1Cc2ccccc2CC2(CCN(C)CC2)C1=O | -7.96
CCCN(Cc1cccnc1)Cc1ccc(C2CCCCO2)o1 (configuration not stated) | -2.3
COCC(=O)NC1CCN(c2cccc(OC(F)(F)F)c2)C1=O (configuration not stated) | -7.95
O=C(NCc1cccnc1)C1=NOC2(CCN(C(=O)N3CCCC3)C2)C1 (configuration not stated) | -9.94
C[C@@H](O)CNC(=O)c1nc(Cc2c(Cl)cccc2Cl)no1 | -8.72
COCC(c1cccc(C(F)(F)F)c1)N(C)C(=O)c1ccoc1 (configuration not stated) | -3.47
COCCC(=O)N1CCCC1c1nc(C)c2c(n1)N(C)C(=O)CC2 (configuration not stated) | -3.97
CCc1noc(C(C)N2CCOCC2)n1 (configuration not stated) | 3.88
O=C1NCCO[C@H]2CN(C(=O)Cc3cccs3)CC[C@@H]12 | -7.13
Cc1ccccc1N1CCN(c2nc(N(C)C)nc3c2CCNC3)CC1 | 33.6
Cc1cccc2c(CCNC(=O)NCC[S+](C)[O-])c[nH]c12 (configuration not stated) | 0.892
Cc1nc(C)n(CC2CCCCN2CCCS(=O)(=O)N(C)C)n1 (configuration not stated) | 3.2
Cc1cn2nc(N3CCCCC3Cn3cccn3)sc2n1 (configuration not stated) | 22.5
COc1ccc(CC(=O)N2CCCC(c3nncn3C)C2)cc1 (configuration not stated) | -2.88
CCS(=O)(=O)N1CCCn2cnc(COc3cccnc3)c2C1 | -2.04
CCCc1cc(C(=O)N(C)Cc2cnn(-c3cccc(OC)c3)c2)[nH]n1 | -6.08
Cc1cc(C#N)ccc1S(=O)(=O)N1CCN(C)Cc2ccccc21 | -0.39
NC(=O)C1CCN(c2ncccc2C(=O)N2CCc3ccccc32)C1 (configuration not stated) | -5.78
CC(C)CNC(=O)NC(=O)CNc1ccccc1SCC(C)C#N (configuration not stated) | -2.52
CN1CCC2(CC1)C(=O)N(C)c1ccc(F)cc12 | 27.9
CC(NC(=O)Cc1ccon1)c1ccc(OCC2CC2)c(F)c1 (configuration not stated) | -7.52
Cc1nc(CN(C)C2CCN(Cc3ccc4c(c3)CCC4)C2)no1 (configuration not stated) | -9.34

Compound | cytotoxicity at 70.5 h [%]
CC(C)CN1CCS(=O)(=O)[C@@H]2CCN(S(=O)(=O)C3CC3)CC[C@@H]21 | -16.5
O=C(NCc1ccco1)[C@H]1C[C@H]2OCC[C@H]2N(S(=O)(=O)C2CC2)C1 | -12.2
Cc1cccc(C(=O)N(C)C2CCN(c3ccccn3)CC2)c1C | 2.5
NC(=O)CN1CCCC1c1ccccc1Br (configuration not stated) | 7.42
Cc1cnn(CC2CCN(CC(O)c3ccccc3)CC2)c1 (configuration not stated) | 13.9
c1ncc2c(n1)CN(CC1CCCCO1)CC2 (configuration not stated) | 6.75
Cc1cccnc1C(Cc1ccsc1)NC(=O)Cn1cccnc1=O (configuration not stated) | -1.07
CCc1ccc(-c2ncc3c(n2)N(C)CCN(CCN(C)C)C3=O)cc1 | -5.02
CCc1ccc2occ(CC(=O)N3CCC4(CCCN(C)C4=O)C3)c2c1 (configuration not stated) | -9.34
CCc1nc(CNc2ccc(C(=O)NCc3ccco3)cc2C)no1 | -9.99
O=C(c1cnc2c(cnn2C2CCCC2)c1)N1CCCSCC1 | -6.43
CC(C)c1nc(C2CCCN(C(=O)CN3CCN(C)CC3)C2)no1 (configuration not stated) | -7.22
Cc1nc2n(n1)CC(NCCCc1nc(-c3cccs3)no1)CC2 (configuration not stated) | 4.3
CN(C)c1ccc(-c2nnc([C@H]3CCN(C4CCCCC4)C3)o2)cc1 | -4.32
CCC1(c2ccc(NS(=O)(=O)c3ccc(Cl)s3)cc2)CCC(=O)NC1=O (configuration not stated) | -11.2
CC(C)(C)SCC(=O)NC(C)(C(N)=O)c1cccc(Cl)c1 (configuration not stated) | -6.38
Cc1nn(C)c(C)c1CN(C)CC1(O)CCCN(C)C1 (configuration not stated) | -19.1
CC(C(=O)N1CCN(c2cnccn2)CC1)n1cncn1 (configuration not stated) | -4.32
O=C(c1ccsc1)N1C[C@H]2CN(Cc3cccnc3)C(=O)[C@H]2C1 | 4.1
CCc1noc(C(C)N2CCCN(Cc3noc(C4CC4)n3)CC2)n1 (configuration not stated) | -13.5
O=C(c1cccc(F)c1)N1CCC2(CC1)CN(c1ccccn1)CCO2 | -8.22
Cc1nnc(NC(=O)CN2CCCC2c2noc(C(C)C)n2)s1 (configuration not stated) | -8.98
CC(=O)NCCOc1cccc(Br)c1 | 2.45

Compound | cytotoxicity at 70.5 h [%]
CC(C)c1cc(C(=O)NCCN2CCCCC2CO)on1 (configuration not stated) | -7
CCN(CC)C(CNS(=O)(=O)c1ccc(C(C)=O)cc1)c1ccco1 (configuration not stated) | -3.55
Cc1cnc(C)c(N2C[C@H]3OC(=O)N(C4CCCC4)[C@H]3C2)n1 | -6.45
O=C(CCc1cn[nH]c1)N1CCC(C2CCN(c3ncccn3)CC2)C1 (configuration not stated) | 0.44
Cn1ccc(C(=O)NC2CCC23CCN(C(=O)c2ccnnc2)CC3)c1 (configuration not stated) | 27.1
Cc1cnn(CC2CCCCN2C(=O)c2cccc(C(N)=O)c2)c1 (configuration not stated) | -1.63
Cn1ccc(C(=O)N2CCOC(c3ccccn3)C2)cc1=O (configuration not stated) | 6.02
Cc1ccc(NC2CCN(C(=O)CCCc3ccccn3)CC2)cc1 | -8.59
CCC(=O)c1cccc(S(=O)(=O)NC(C)C#N)c1 (configuration not stated) | -11
Cc1cccc2[nH]c(C3CCN(C(=O)c4ccnn4C)CC3)nc12 | 0.0948
Fc1ccc(C2CCCN2Cc2nnnn2C2CC2)cc1 (configuration not stated) | 28.2
Cc1ccc(CNCc2nnc3n2CCCC3C(F)(F)F)s1 (configuration not stated) | -10.1
COc1c(C2CCCN2Cc2cc(C)no2)c(C)nn1C (configuration not stated) | -9.4
O=C(c1cccc(C(F)(F)F)c1)N1CC(=O)N(C2CCC2)CC(O)C1 (configuration not stated) | -7.16
c1ccc(-c2cc(CNCCCC3CCOC3)c3nnnn3c2)cc1 (configuration not stated) | 5.9
CS(=O)(=O)N1CCC2(CC1)c1ccccc1[C@@H](N1CCSCC1)[C@@H]2O | -0.762
OC1(CN2CCC(Oc3cccnc3)CC2)CNCCOC1 (configuration not stated) | -7.48
Cc1ccc(CN(C)Cc2cc(C3CC3)[nH]n2)c(O)n1 | -5.35
COCC1c2nnn(CC3CC3)c2CCN1C(=O)c1ccncn1 (configuration not stated) | 9.24
CC(=O)N1CCCN(C2CCCCc3ccccc32)CC1 (configuration not stated) | -3.31
CCC1=N[C@@]2(CC[C@@H]3CN(Cc4ccccc4F)C[C@@H]32)C(=O)N1 | -6.13
c1ccc(OCCCNCCn2cccn2)cc1 | -0.836
CCS(=O)(=O)c1ccc(N2CCC(NC(=O)CC3CCCC3)CC2)cc1 | -9.91

Compound | cytotoxicity at 70.5 h [%]
Cc1nn(C)c(=O)c2nn(-c3ccc(Cl)cc3)c(C)c12 | -1.68
CN1CC(c2ccccc2)CC12CCN(C(=O)c1cccnc1)CC2 (configuration not stated) | -9.06
CCCc1cc(N2CCC(NC3CCOCC3)CC2)nc(C)n1 | 22.8
O=C1NCCN(CC2CC2)C12CCN(Cc1ccccc1)CC2 | 13.9
CNc1nc(CNC(=O)Nc2cccc(-n3ccc(C)n3)c2)cs1 | 0.812
Cc1cnn(CCC(=O)N2CCCC(c3cc(C)[nH]n3)C2)c1 (configuration not stated) | 49
O=C(O)c1nnn(-c2cccc(C(F)(F)F)c2)c1-c1ccncc1 | 5.64
COCCn1cc2c(n1)C(CNCc1nccs1)OCC2 (configuration not stated) | -2.52
CCc1nc(C2CCCN2Cc2noc(Cc3ccccc3)n2)no1 (configuration not stated) | -7.3
CC(C)N(CCSc1ncnc2[nH]ncc12)C(C)C | -1.52
CC(Cn1ccnc1)NC(=O)NCCc1cccnc1 (configuration not stated) | -2.45
Cc1nc(-n2nc(-c3cccs3)cc2N)[nH]c(=O)c1C | -4.91
Cc1ccc(NC2CCN(C(=O)CCNc3ncccn3)CC2)nn1 | -9.43
COCCC(=O)N1CCC2(COCc3c(C)nc(NCC4CC4)nc32)C1 (configuration not stated) | -4.97
Cc1cnn(CCNCC(=O)N2CCN(c3ccccn3)CC2)c1 | 8.76
Cc1nc(C)n(CC2CCCN2Cc2nc(N)c3ccccc3n2)n1 (configuration not stated) | -4.33
c1csc(N2CCN(c3nccn4cnnc34)CC2)n1 | -3.57
O=C(CCc1ccc(O)cc1)N1CCC(Cc2ccc(CO)cc2)C1 (configuration not stated) | -9.62
CSc1ncccc1C(=O)N(CCO)Cc1ccccc1 | -0.362
CCCC(=O)NC1CCCN(Cc2cccs2)C1 (configuration not stated) | -18.1
